Broadly, the EC50 is the concentration that produces a half-maximal response.

The first assay concerns parasite. In words: Parasite LDH growth assay (Parasite Assay), antiparasite potency. The following applies: 72 h, parasite LDH growth assay, ring stage parasites, 72 hours incubation at 37° C.; read-out: EC50. Type of assay: cell-based. Here is the method:
Assessing Antiparasite Potency in a Parasite LDH Growth Assay (Parasite Assay)
The parasite stock was maintained at 4% haematocrit in RPMI-Hepes media buffered with sodium bicarbonate and supplemented with 5% heat inactivated human serum and 0.5% albumax.
On the day of assay set up, a blood smear of the parasite culture was Giemsa stained and counted. The parasitemia was adjusted to 0.7% rings and the haematocrit was diluted to 2% in RPMI-Hepes media buffered with sodium bicarbonate and supplemented with 5% heat inactivated human serum and 0.5% albumax. 30 ul of diluted parasites are then added into 10 ul of media+compound in pre-prepared Greiner TC assay plates. Parasite assay plates were placed in gassed humidified boxes in single layer and allowed to incubate at 37° C. for 72 hours. After 72 hours growth, assay plates are sealed with parafilm and frozen flat, in single file at −80° C. overnight. On the following day, assay plates are allowed to thaw at room temperature for 4 hours to which an LDH assay is performed to measure parasite growth.
`CCC1(CC)CC(=O)N([C@H]2c3cc(C(=O)N[C@@H]4c5ccccc5OC[C@@]4(C)O)ccc3CC[C@@H]2OC)C(=N)N1` [Example 247, (3S,4S)-4-(4,4-diethyl-2-imino-6-oxo-hexahydropyrimidin-1-yl)-N-[(3S,4R)-3-hydroxy-3-methyl-chroman-4-yl]-3-methoxy-tetralin-6-carboxamide]: the EC50 came to 4500 pM.

As to `CCC1(CC)CC(=O)N([C@@H]2CCOc3ccc(C(=O)NC4c5cc(F)ccc5C[C@H]4O)cc32)C(=N)N1` (stereo in doubt) [Example 148, (4R)-4-(4,4-diethyl-2-imino-6-oxo-hexahydropyrimidin-1-yl)-N-[(1R,2R)-6-fluoro-2-hydroxy-indan-1-yl]chromane-6-carboxamide], the EC50 turned out to be 2700 pM.

For the compound `CC[C@]1(C)CC(=O)N([C@@H]2CCc3ccc(C(=O)N[C@@H]4c5ccccc5OC(C)(C)[C@H]4O)cc32)C(=N)N1` [Example 121, (3R)-3-[(4R)-4-ethyl-2-imino-4-methyl-6-oxo-hexahydropyrimidin-1-yl]-N-[(3S,4R)-3-hydroxy-2,2-dimethyl-chroman-4-yl]indane-5-carboxamide], the concentration for a half-maximal effect (EC50) is 600 pM.

In the case of `CCC1(CC)CC(=O)N([C@@H]2C[C@H](OC)c3ccc(C(=O)N[C@@H]4c5ccccc5OC(C)(C)[C@H]4O)cc32)C(=N)N1` [Example 239, (1S,3R)-3-(4,4-diethyl-2-imino-6-oxo-hexahydropyrimidin-1-yl)-N-[(3S,4R)-3-hydroxy-2,2-dimethyl-chroman-4-yl]-1-methoxy-indane-5-carboxamide], the concentration giving a half-maximal response (EC50) amounted to 900 pM.

`CC[C@]1(C)CC(=O)N([C@H]2c3cc(C(=O)N[C@@H]4c5ccccc5OC(C)(C)[C@H]4O)ccc3C[C@@H]2C)C(=N)N1` [Example 169, (2S,3R)-3-[(4R)-4-ethyl-2-imino-4-methyl-6-oxo-hexahydropyrimidin-1-yl]-N-[(3S,4R)-3-hydroxy-2,2-dimethyl-chroman-4-yl]-2-methyl-indane-5-carboxamide]: the EC50 was 300 pM.

As to `CCC1(CC)CC(=O)N([C@@H]2CCOc3ccc(C(=O)N[C@@H]4c5cc(F)ccc5OC(C)(C)[C@H]4O)cc32)C(=N)N1` [Example 25A, (R)-4-(4,4-diethyl-2-imino-6-oxotetrahydropyrimidin-1(2H)-yl)-N-((3S,4R)-6-fluoro-3-hydroxy-2,2-dimethylchroman-4-yl)chromane-6-carboxamide], the 50% effective concentration (EC50) stood at 500 pM.

Turning to `CCC1(CC)CC(=O)N(C2CCCc3ccc(C(=O)N[C@@H]4c5ccccc5OC[C@@]4(C)O)cc32)C(=N)N1` (stereo partly drawn) [Example 161, 8-(4,4-diethyl-2-imino-6-oxotetrahydropyrimidin-1(2H)-yl)-N-((3S,4R)-3-hydroxy-3-methylchroman-4-yl)-5,6,7,8-tetrahydronaphthalene-2-carboxamide], the EC50 worked out at 800 pM.

`CCC1(CC)CC(=O)N([C@@H]2CCOc3ccc(C(=O)N[C@@H]4c5ccccc5OC(C)(C)[C@H]4O)nc32)C(=N)N1` [Example 30A, (R)-4-(4,4-diethyl-2-imino-6-oxotetrahydropyrimidin-1(2H)-yl)-N-((3S,4R)-3-hydroxy-2,2-dimethylchroman-4-yl)-3,4-dihydro-2H-pyrano[3,2-b]pyridine-6-carboxamide]: the 50% effective concentration (EC50) turned out to be 800 pM.

On to `CCC1(CC)CC(=O)N([C@@H]2CCOc3ccc(C(=O)N[C@H]4CC(C)(C)Oc5ccc(Br)cc54)cc32)C(=N)N1` [Example 14A, (R)-N-((S)-6-bromo-2,2-dimethylchroman-4-yl)-4-(4,4-diethyl-2-imino-6-oxotetrahydropyrimidin-1(2H)-yl)chromane-6-carboxamide], for which the EC50 stood at 1000 pM.

Consider `CC[C@]1(C)CC(=O)N([C@@H]2C[C@@H](C)c3ccc(C(=O)N[C@@H]4c5ccccc5OC(C)(C)[C@H]4O)cc32)C(=N)N1` [Example 171, (1R,3R)-3-[(4R)-4-ethyl-2-imino-4-methyl-6-oxo-hexahydropyrimidin-1-yl]-N-[(3S,4R)-3-hydroxy-2,2-dimethyl-chroman-4-yl]-1-methyl-indane-5-carboxamide], for which the EC50 was determined as 700 pM.

On to `CC1(C)CC(=O)N([C@@H]2CCc3ccc(C(=O)N[C@H]4CC(C)(C)Oc5ccccc54)cc32)C(=N)N1` [Example 84, (3R)-N-[(4S)-2,2-dimethylchroman-4-yl]-3-(2-imino-4,4-dimethyl-6-oxo-hexahydropyrimidin-1-yl)indane-5-carboxamide], for which the EC50 was determined as 900 pM.

`CC[C@]1(C)CC(=O)N([C@@H]2C[C@@H](C)c3ccc(C(=O)N[C@@H]4c5ccccc5OC[C@@]4(C)O)cc32)C(=N)N1` [Example 131, (1R,3R)-3-[(4R)-4-ethyl-2-imino-4-methyl-6-oxo-hexahydropyrimidin-1-yl]-N-[(3S,4R)-3-hydroxy-3-methyl-chroman-4-yl]-1-methyl-indane-5-carboxamide]: the concentration giving a half-maximal response (EC50) is 2000 pM.

Turning to `CCC1(CC)CC(=O)N([C@H]2c3cc(C(=O)N[C@@H]4c5ccccc5OC(C)(C)[C@H]4O)ccc3OC2(C)C)C(=N)N1` [Example 245, (3S)-3-(4,4-diethyl-2-imino-6-oxo-hexahydropyrimidin-1-yl)-N-[(3S,4R)-3-hydroxy-2,2-dimethyl-chroman-4-yl]-2,2-dimethyl-3H-benzofuran-5-carboxamide], the EC50 was found to be 800 pM.

On to `CCC1(CC)CC(=O)N([C@@H]2CCOc3ccc(C(=O)N[C@@H]4c5ccccc5C5(CC5)[C@H]4O)cc32)C(=N)N1` [Example 154, (4R)-4-(4,4-diethyl-2-imino-6-oxo-hexahydropyrimidin-1-yl)-N-[(1′R,2′R)-2′-hydroxyspiro[cyclopropane-1,3′-indane]-1′-yl]chromane-6-carboxamide], for which the EC50 was 700 pM.

Regarding `CCC1(CC)CC(=O)N([C@@H]2CCOc3ccc(C(=O)N[C@@H]4c5cc(C#N)ccc5OC(C)(C)[C@H]4O)cc32)C(=N)N1` [Example 20A, (R)-N-((3S,4R)-6-cyano-3-hydroxy-2,2-dimethylchroman-4-yl)-4-(4,4-diethyl-2-imino-6-oxotetrahydropyrimidin-1(2H)-yl)chromane-6-carboxamide], the concentration for a half-maximal effect (EC50) was 800 pM.

Staying with this assay, now noted: parasite LDH growth assay, ring stage parasites, 72 hours incubation at 37° C.; read-out: EC50.
For `CCC1(CC)CC(=O)N([C@@H]2CCOc3ccc(C(=O)NC4c5ccccc5OC4(C)CO)cc32)C(=N)N1` (stereo partly drawn) [Example 176B, (4R)-4-(4,4-diethyl-2-imino-6-oxo-hexahydropyrimidin-1-yl)-N-[2-(hydroxymethyl)-2-methyl-3H-benzofuran-3-yl]chromane-6-carboxamide], the EC50 worked out at 7800 pM.

Turning to `CCC1C[C@@H](N2C(=N)NC(CC)(CC)CC2=O)c2cc(C(=O)N[C@@H]3c4ccccc4C[C@H]3O)ccc2O1` (stereo partly drawn) [Example 9A, (4R)-4-(4,4-diethyl-2-imino-6-oxotetrahydropyrimidin-1(2H)-yl)-2-ethyl-N-((1R,2R)-2-hydroxy-2,3-dihydro-1H-inden-1-yl)chromane-6-carboxamide], the EC50 is 900 pM.

On to `CCC1(CC)CC(=O)N([C@@H]2CC(C)(C)Oc3ccc(C(=O)N[C@@H]4c5cc(F)ccc5OC(C)(C)[C@H]4O)cc32)C(=N)N1` [Example 53A, (R)-4-(4,4-diethyl-2-imino-6-oxotetrahydropyrimidin-1(2H)-yl)-N-((3S,4R)-6-fluoro-3-hydroxy-2,2-dimethylchroman-4-yl)-2,2-dimethylchromane-6-carboxamide], for which the EC50 came out at 300 pM.

The values above are taken from patent US20230355622A1, “METHODS OF CHEMOVACCINATION AGAINST PLASMODIUM INFECTIONS” (Merck Sharp & Dohme LLC, priority 2020, published 2023).
